Earlier results, collected in patent publication US5006550A, “Chroman esters of phenols and benzoic acids having retinoid-like activity” (Allergan, Inc., priority 1989, dated 1991).

Tested on: ornithine decarboxylase (ODC)
Settings: background statement on retinoic acid

## CC1=C(/C=C/C(C)=C/C=C/C(C)=C/C(=O)O)C(C)(C)CCC1 [Retinoic acid]
  inhibition of induction of ODC activity by TPA (in words): inhibits this induction of ODC activity by TPA
